Earlier results on 1 compound are cited in patent US20030199483A1, “Aldosterone receptor antagonist and alpha-adrenergic modulating agent combination therapy for prevention or treatment of pathogenic conditions” (priority 2002, published 2003).

The data set concerns myocardial fibrosis in animal models.

For the compound `CC(=O)S[C@@H]1CC2=CC(=O)CC[C@]2(C)[C@H]2CC[C@@]3(C)[C@@H](CC[C@@]34CCC(=O)O4)[C@H]12` [spironolactone, 17-hydroxy-7α-mercapto-3-oxo-17α-pregn-4-ene-21-carboxylic acid γ-lactone acetate], under “D. Klug et al 1993”, the myocardial fibrosis result is “prevents myocardial fibrosis”. Also, the fibrosis result (irrespective of the development of left ventricular hypertrophy and the presence of hypertension, C. G. Brilla et al 1993) is given as “prevent fibrosis”.
